According to patent US9649389B2, “Substituted silaxanthenium red to near-infrared fluorochromes for in vitro and in vivo imaging and detection” (VisEn Medical, Inc., priority 2013, dated 2017):

Experiments:
KB cells = assay: Cell uptake of glucosamine conjugated SX compound by fluorescence microscopy and flow cytometry; type: cell-based; details: 30 μM, 30 minutes
Protocol: This example illustrates cell uptake of a biomolecule (glucosamine) conjugated SX compound, compound 67 in KB cells. KB cells were cultured in media for 2 h then incubated with 30 μM of compound 67 for 30 minutes before analysis of the cells by fluorescence microscopy and flow cytometry with appropriate filter sets for the two different fluorescent dyes. As a control, cells were also incubated with the commercial fluorescent glucosamine derivative 2-NBDG also at 30 μM.

[1] = Optical properties of silaxanthenium fluorochromes (absorption/emission maxima, relative brightness); type: physicochemical; details: for Abs. λmax / Em. Λmax: 1×PBS, 1 cm square cuvette; for Relative Fluorescence: brightness (fluorescence intensity / absorption at λmax) normalized to CY1, 1×PBS
From the text: The relative brightness is defined by the fluorescence intensity of a solution of the fluorochrome in a 1 cm square cuvette when excited at its wavelength of maximum absorption divided by the absorption of the same sample at the wavelength of maximum absorption. The three examples shown with a S atom in the X position of Formula II are red shifted about 20 nm relative to three examples with the S atom in the Y or Z positions.
This example summarizes in Table 3 the absorption and emission characteristics of some exemplary silaxanthenium (SX) fluorochromes relative to a cell impermeable cyanine dye (sulfonated Cy5 analog) CY1. Absorption and emission characteristics were measured in 1×PBS in a 1 cm square cuvette. Relative fluorescence (brightness) was measured as in Example 8 and normalized to that of compound CY1.

[2] = In vivo tomographic imaging (FMT 2500) after intravenous injection; details: 2 nmoles intravenous, SKH-1 E female mice
Protocol: Two SKH-1 E female mice (9 weeks old) were injected with 2 nmoles of compound 44. Tomographic images of the whole body of the mouse were taken at 1, 15, 30 and 45 minutes and 1, 2 and 3 hours.

[3] = Absorption and emission maxima of two isomeric thienyl dyes; type: physicochemical
Protocol: (§1) Two isomeric thienyl Si-Rho dyes 88 and 89, were synthesized using the methods described previously. The two isomeric compounds, which are of identical molecular weight and molecular formula, have absorption and emission maxima of 652 nm and 668 nm (88) and 667 nm and 681 nm (89). Compounds were analyzed with two different filter sets by flow cytometry and also by fluorescence microscopy for cellular uptake and washout. Trypsin EDTA-detached 4T1 at 0.5 mil cells/mL culture medium were incubated with 1 uM 88 or 89 for 30 min at 37° C. Cells were washed 1× with PBS and analyzed by flow cytometry with a 705/70 nm emission filter for 88 and a 712/21 nm emission filter for 89 and by fluorescence microscopy.

4T1 cells = assay: Cellular uptake and washout by flow cytometry and fluorescence microscopy; type: cell-based; details: for cellular uptake: 1 uM, 30 min, 37° C.; for dye still remaining after washout: 1.5 h washout, flow cytometry
Protocol: as §1

chymotrypsin = assay: Fluorescence activation of internally quenched probe upon protease cleavage; type: biochemical; details: 1×PBS, 37° C., 4 h
From the text: FIG. 6A illustrates fluorescence activation upon enzyme cleavage of an internally quenched pair of silaxanthenium fluorochromes separated by an enzyme cleavable peptide sequence (Compound 78). Compound 78 was synthesized by conjugating two carboxylic acid dyes to lysine side chain amines in the peptide sequence using HATU and triethylamine. The quenched probe was purified by HPLC. Absorbance and fluorescence, measured on a Cary 50 UV-vis spectrophotometer (Varian) and a Cary Eclipse fluorescence spectrophotometer, respectively, of the quenched (dashed lines) and activated (cleaved by chymotrypsin in 1×PBS, solid lines) fluorochromes are shown in FIG. 6B.
A 22-fold increase in fluorescence intensity was observed. […] Trypsin EDTA-detached 4T1 were seeded in a 6-well tissue culture plate at 0.5 mil cells/2 mL of culture medium were incubated with 1 or 5 uM of 92, 93, or 91 for 21 h at 37° C. Cells were washed 1× with PBS, detached, and analyzed by FC and FLM (Cy5 filter). […] Trypsin EDTA-detached 4T1 cells were implanted 1.5 mil/site approximately 1 week prior to imaging. 92 was injected retro-orbitally at 4 nmol and imaged by FMT at 5 and 24 h.

SMILES | Abs. λmax [1] [nm] | Em. Λmax [1] [nm] | Relative Fluorescence [1] | further results
O=[N+]([O-])c1ccc(N[C@H]2C(O)O[C@H](CO)[C@@H](O)[C@@H]2O)c2nonc12 (stereo partly shown) [Compound 2-NBDG, reference compound] | – | – | – | cell uptake (KB cells): taken up by the cells; quantification of cell fluorescence by flow cytometry (KB cells): in normal analysis range
Cc1csc(C(=O)O)c1C1=C2C=CC(=[N+](C)C)C=C2[Si](C)(C)c2cc(N(C)C)ccc21 [Compound 17, 3,6-bis(dimethylamino)-9-(2-carboxy-4-methyl-thien-3-yl)-10,10-dimethyl-10-silaxanthenium chloride] | 649 | 666 | 1.11 | –
Cc1c(C2=C3C=CC(=[N+](C)C)C=C3[Si](C)(C)c3cc(N(C)C)ccc32)csc1C(=O)O [Compound 18, 3,6-bis(dimethylamino)-9-(2-carboxy-3-methyl-thien-4-yl)-10,10-dimethyl-10-silaxanthenium chloride] | 653 | 668 | 1.02 | –
Cc1cc(C(=O)O)ccc1C1=C2C=CC(=[N+]3CCCC3)C=C2[Si](C)(C)c2cc(N3CCCC3)ccc21 [Compound 44, 3,6-bis(pyrridolin-1-yl)-9-(2-methyl-4-carboxyphenyl)-10,10-dimethyl-10-silaxanthenium] | 655 | 669 | 1.54 | wash out of the untargeted compound [2]: ≤ 3 h; biodistribution by tomographic imaging ([2]; imaged 1 minute to 3 hours): Rapid accumulation of the fluorochrome compound can be seen in the heart region followed by slower accumulation to other areas of the body
Cc1cc(C(=O)O)ccc1C1=C2C=CC(=[N+]3CCOCC3)C=C2[Si](C)(C)c2cc(N3CCOCC3)ccc21 [Compound 45, 3,6-bis(morpholino)-9-(2-methyl-4-carboxyphenyl)-10,10-dimethyl-10-silaxanthenium] | 651 | 670 | 0.75 | –
CN(C)c1ccc2c(c1)[Si](C)(C)C1=CC(=[N+](C)C)C=CC1=C2c1ccc(C(=O)O)s1 [Compound 65, 3,6-bis(dimethylamino)-9-(2-carboxy-thien-5-yl)-10,10-dimethyl-10-silaxanthenium chloride] | 669 | 683 | 0.05 | –
Cc1c(C(=O)O)sc(C2=C3C=CC(=[N+](C)C)C=C3[Si](C)(C)c3cc(N(C)C)ccc32)c1Br [Compound 66] | – | – | – | red shift ([1]; relative to compound 17 (S moved from Z to X position, bromine substituent added)): 23 nm
Cc1cc(C(=O)N[C@@H]2[C@@H](O)[C@H](O)[C@@H](CO)O[C@@H]2O)ccc1C1=C2C=CC(=[N+]3CCCC3)C=C2[Si](C)(C)c2cc(N3CCCC3)ccc21 [Compound 67] | – | – | – | cell uptake (KB cells): taken up by the cells; quantification of cell fluorescence by flow cytometry (KB cells): detector saturation
Cc1ccccc1C1=C2C=CC(=[N+](C)C)C=C2[Si](C)(C)c2cc(N(C)C)ccc21 [Compound 77] | 650 | 666 | 1.20 | –
CN(C)c1ccc2c(c1)[Si](C)(C)c1cc(N(C)C)ccc1[C+]2c1ccsc1 [Compound 88] | – | – | – | absorption maximum [3]: 652 nm; emission maximum [3]: 668 nm; cellular uptake (4T1 cells): Significant uptake; dye still remaining after washout (4T1 cells): approximately one third
CN(C)c1ccc2c(c1)[Si](C)(C)c1cc(N(C)C)ccc1[C+]2c1cccs1 [Compound 89] | – | – | – | absorption maximum [3]: 667 nm; emission maximum [3]: 681 nm; cellular uptake (4T1 cells): Significant uptake; dye still remaining after washout (4T1 cells): approximately one third
CC(C)C[C@@H](NC(=O)[C@@H](Cc1ccccc1)NC(=O)CNC(=O)[C@@H](CCCCNC(=O)c1cc(C2=C3C=CC(=[N+](C)C)C=C3[Si](C)(C)c3cc(N(C)C)ccc32)c(C(=O)[O-])s1)NC(=O)CCC(=O)O)C(=O)NCC(=O)N[C@H](CCCCNC(=O)c1cc(C2=C3C=CC(=[N+](C)C)C=C3[Si](C)(C)c3cc(N(C)C)ccc32)c(C(=O)[O-])s1)C(N)=O [Compound 91] | – | – | – | increase in fluorescence intensity (chymotrypsin): 22 fold
